± gives the expanded uncertainty stated by the source.
Settings: Liquid, Vibrating tube method

CC(C)CO [2-methyl-1-propanol]
Settings	mass density [kg/m3]
323.15 K, 32903 kPa	805.081 ± 0.86
323.15 K, 33102 kPa	805.154 ± 0.87
323.15 K, 33950 kPa	805.707 ± 0.87
323.15 K, 34958 kPa	806.425 ± 0.87
323.15 K, 37883 kPa	808.369 ± 0.88
323.15 K, 39891 kPa	809.68 ± 0.88
323.15 K, 42065 kPa	811.076 ± 0.89
323.15 K, 44846 kPa	812.852 ± 0.89
323.15 K, 49935 kPa	815.968 ± 0.91
323.15 K, 52064 kPa	817.249 ± 0.91
323.15 K, 54897 kPa	818.944 ± 0.92
323.15 K, 57818 kPa	820.634 ± 0.93
323.15 K, 59855 kPa	821.787 ± 0.93
323.15 K, 61856 kPa	822.928 ± 0.94
323.15 K, 64838 kPa	824.6 ± 0.94
323.15 K, 65957 kPa	825.209 ± 0.94
323.16 K, 1117.8 kPa	779.897 ± 0.81
323.16 K, 47886 kPa	814.721 ± 0.9
328.15 K, 96.5 kPa	774.907 ± 0.81
328.15 K, 395.8 kPa	775.157 ± 0.81
328.15 K, 904.1 kPa	775.603 ± 0.81
328.15 K, 1030.6 kPa	775.74 ± 0.81
328.15 K, 2999.3 kPa	777.646 ± 0.81
328.15 K, 5042 kPa	779.515 ± 0.81
328.15 K, 10121 kPa	784.077 ± 0.82
328.15 K, 11905 kPa	785.621 ± 0.82
328.15 K, 24953 kPa	795.929 ± 0.85
328.15 K, 27874 kPa	798.098 ± 0.86
328.15 K, 29949 kPa	799.588 ± 0.86
328.15 K, 31948 kPa	800.996 ± 0.86
328.15 K, 33061 kPa	801.681 ± 0.87
328.15 K, 34111 kPa	802.415 ± 0.87
328.15 K, 34984 kPa	803.007 ± 0.87
328.15 K, 37913 kPa	805.001 ± 0.88
328.15 K, 41958 kPa	807.674 ± 0.89
328.15 K, 44806 kPa	809.5 ± 0.9
328.15 K, 55150 kPa	815.995 ± 0.92
328.15 K, 58100 kPa	817.75 ± 0.93
328.15 K, 60045 kPa	818.881 ± 0.93
328.15 K, 62082 kPa	820.048 ± 0.94
328.15 K, 66095 kPa	822.334 ± 0.95
328.16 K, 515 kPa	775.262 ± 0.81
328.16 K, 2069.7 kPa	776.794 ± 0.81
328.16 K, 6936.7 kPa	781.257 ± 0.82
328.16 K, 8874.2 kPa	782.985 ± 0.82
328.16 K, 14954 kPa	788.149 ± 0.83
328.16 K, 17891 kPa	790.513 ± 0.83
328.16 K, 20040 kPa	792.21 ± 0.84
328.16 K, 22054 kPa	793.773 ± 0.84
328.16 K, 33018 kPa	801.745 ± 0.87
328.16 K, 39966 kPa	806.346 ± 0.88
328.16 K, 47820 kPa	811.414 ± 0.9
328.16 K, 49817 kPa	812.637 ± 0.91
328.16 K, 52099 kPa	814.145 ± 0.91
328.16 K, 64955 kPa	821.692 ± 0.95
333.15 K, 95.7 kPa	770.629 ± 0.81
333.15 K, 913.6 kPa	771.467 ± 0.81
333.15 K, 6965.6 kPa	777.259 ± 0.82
333.15 K, 8937.3 kPa	779.076 ± 0.82
333.15 K, 9995.1 kPa	780.005 ± 0.82
333.15 K, 11970 kPa	781.72 ± 0.82
333.15 K, 14915 kPa	784.255 ± 0.83
333.15 K, 22033 kPa	790.027 ± 0.84
333.15 K, 29996 kPa	796.045 ± 0.86
333.15 K, 31986 kPa	797.49 ± 0.87
333.15 K, 32928 kPa	798.124 ± 0.87
333.15 K, 41792 kPa	804.162 ± 0.89
333.15 K, 47830 kPa	808.087 ± 0.91
333.15 K, 49895 kPa	809.38 ± 0.91
333.15 K, 51876 kPa	810.61 ± 0.92
333.15 K, 54830 kPa	812.44 ± 0.92
333.15 K, 58116 kPa	814.429 ± 0.93
333.15 K, 59975 kPa	815.509 ± 0.94
333.15 K, 61974 kPa	816.676 ± 0.94
333.15 K, 65057 kPa	818.467 ± 0.95
333.15 K, 66042 kPa	819.039 ± 0.95
333.16 K, 295.9 kPa	770.818 ± 0.81
333.16 K, 574.5 kPa	771.11 ± 0.81
333.16 K, 1069.5 kPa	771.621 ± 0.81
333.16 K, 2110.6 kPa	772.649 ± 0.81
333.16 K, 3100 kPa	773.622 ± 0.81
333.16 K, 5034 kPa	775.464 ± 0.81
333.16 K, 17954 kPa	786.777 ± 0.84
333.16 K, 19985 kPa	788.397 ± 0.84
333.16 K, 24923 kPa	792.261 ± 0.85
333.16 K, 27922 kPa	794.514 ± 0.86
333.16 K, 33031 kPa	798.137 ± 0.87
333.16 K, 34001 kPa	798.837 ± 0.87
333.16 K, 35030 kPa	799.567 ± 0.87
333.16 K, 37925 kPa	801.558 ± 0.88
333.16 K, 39862 kPa	802.861 ± 0.89
333.16 K, 44782 kPa	806.126 ± 0.9
338.15 K, 72.5 kPa	765.803 ± 0.81
338.15 K, 267.1 kPa	766.009 ± 0.81
338.15 K, 496.5 kPa	766.255 ± 0.81
338.15 K, 821.3 kPa	766.6 ± 0.81
338.15 K, 1007.7 kPa	766.796 ± 0.81
338.15 K, 2012.4 kPa	767.824 ± 0.81
338.15 K, 3039.1 kPa	768.845 ± 0.81
338.15 K, 7018.5 kPa	772.739 ± 0.82
338.15 K, 8987.6 kPa	774.596 ± 0.82
338.15 K, 10054 kPa	775.578 ± 0.82
338.15 K, 18105 kPa	782.627 ± 0.84
338.15 K, 22120 kPa	785.947 ± 0.85
338.15 K, 28029 kPa	790.565 ± 0.86
338.15 K, 32010 kPa	793.527 ± 0.87
338.15 K, 32776 kPa	794.103 ± 0.87
338.15 K, 32995 kPa	794.184 ± 0.87
338.15 K, 33922 kPa	794.869 ± 0.87
338.15 K, 38056 kPa	797.798 ± 0.88
338.15 K, 42127 kPa	800.629 ± 0.9
338.15 K, 48090 kPa	804.572 ± 0.91
338.15 K, 50121 kPa	805.906 ± 0.92
338.15 K, 52094 kPa	807.168 ± 0.92
338.15 K, 55116 kPa	809.055 ± 0.93
338.15 K, 58010 kPa	810.837 ± 0.94
338.15 K, 60191 kPa	812.149 ± 0.94
338.15 K, 62244 kPa	813.373 ± 0.95
338.15 K, 65243 kPa	815.143 ± 0.96
338.15 K, 65986 kPa	815.583 ± 0.96
338.15 K, 66355 kPa	815.805 ± 0.96
338.16 K, 5091.1 kPa	770.879 ± 0.81
338.16 K, 12131 kPa	777.462 ± 0.83
338.16 K, 15171 kPa	780.113 ± 0.83
338.16 K, 20167 kPa	784.349 ± 0.84
338.16 K, 25290 kPa	788.465 ± 0.85
338.16 K, 30041 kPa	792.069 ± 0.86
338.16 K, 35102 kPa	795.7 ± 0.88
338.16 K, 39987 kPa	799.156 ± 0.89
338.16 K, 45109 kPa	802.623 ± 0.9
343.15 K, 55.6 kPa	761.239 ± 0.81
343.15 K, 101.8 kPa	761.279 ± 0.81
343.15 K, 277.3 kPa	761.484 ± 0.81
343.15 K, 487.7 kPa	761.699 ± 0.81
343.15 K, 881.6 kPa	762.13 ± 0.81
343.15 K, 1037 kPa	762.294 ± 0.81
343.15 K, 1941.4 kPa	763.263 ± 0.81
343.15 K, 3000.3 kPa	764.362 ± 0.81
343.15 K, 4957 kPa	766.378 ± 0.81
343.15 K, 6956.1 kPa	768.377 ± 0.82
343.15 K, 8969.5 kPa	770.304 ± 0.82
343.15 K, 10003 kPa	771.264 ± 0.82
343.15 K, 11997 kPa	773.149 ± 0.83
343.15 K, 14895 kPa	775.758 ± 0.83
343.15 K, 17840 kPa	778.358 ± 0.84
343.15 K, 20135 kPa	780.417 ± 0.84
343.15 K, 21925 kPa	781.908 ± 0.85
343.15 K, 24920 kPa	784.349 ± 0.85
343.15 K, 27949 kPa	786.755 ± 0.86
343.15 K, 29863 kPa	788.238 ± 0.87
343.15 K, 31874 kPa	789.777 ± 0.87
343.15 K, 32927 kPa	790.544 ± 0.87
343.15 K, 32981 kPa	790.602 ± 0.87
343.15 K, 34026 kPa	791.305 ± 0.88
343.15 K, 35028 kPa	792.011 ± 0.88
343.15 K, 38080 kPa	794.257 ± 0.89
343.15 K, 39908 kPa	795.53 ± 0.89
343.15 K, 41973 kPa	796.98 ± 0.9
343.15 K, 44972 kPa	799.034 ± 0.91
343.15 K, 47997 kPa	801.072 ± 0.91
